Assay results from patent US7166622B2, “Substituted phenylsulfonamide inhibitors of beta amyloid production” (Wyeth, priority 2002, dated 2007).
Blank lines part the entries; values can stand above or below the compound they belong to.

Tests used:
beta amyloid production = assay: Repressor Release Assay (RRA); type: cell-based; settings: for APPI % of Example #98: relative to Example 98
Method: CHO-K1 cells were cultured in whole DMEM media (DMEM—High Glucose with 10% fetal bovine serum, 1% Non-essential Amino Acids, and 1% Penicillin-Streptomycin) at 37° C. with 5% CO2. Two million cells were plated into 10-cm dishes 24 hrs prior to transfection.
Transient transfections were completed as recommended by Gibco BRL using their Lipofectamine Plus system. First, 6 μg of pRSVO-luc and 6 μg of APP-lacI construct DNA were added to 460 μL Opti-Mem transfection media and incubated with 30 μL Plus reagent for 15 minutes. Then, a lipid mixture of 40 μL Lipofectamine reagent and 460 μL Opti-Mem transfection media was incubated with the DNA-Plus reagent mixture for 15 minutes. During the DNA-lipid incubation, the CHO-K1 cells were washed once and covered in 5.0 mL DMEM media without Penicillin-Streptomycin. The DNA-lipid preparation was then layered onto these cells and incubated at 37° C. overnight.
[…] transfected cells per well (100 μL total volume) were plated into sterile, opaque Packard 96-well Culture-Plates in clear DMEM whole media (DMEM—without phenol red) and incubated at 37° C. with 5% CO2 for 3-5 hours.
Compounds were diluted using two different protocols; one protocol was used for compounds supplied neat (weighed powder in vial) and the other protocol was used for compounds supplied in solution (20 mM in DMSO in 96-well plates). For both protocols, 25 mM Hepes and 25 mM Hepes/1% DMSO were prepared fresh to be used as diluent. The Hepes/DMSO was used as the diluent control on all experimental plates.
The following table depicts the steps for compound dilution (please note that the last step was the addition of compound to cells/media in tissue culture plate).
Because some compounds were present in 96-well format at 20 mM, the following represents the protocol for their dilution (note that an average molecular weight of these compounds was used to calculate these dilutions and as above, the last step was the addition of compound to cells/media in tissue culture plate).
Once the compounds were diluted, they were applied in duplicate on cells in tissue culture plates (prepared above). Cells were incubated with compound at 37° C. with 5% CO2 for an additional 36-48 hours.
Luciferase assays (LucLite reagent, Packard) were performed and were read on a Packard TopCount instrument. Media was removed from each 96-well plate and replaced with 100 μL PBS per well (with Mg^2+ and Ca^2+). An equal volume (100 μL) of the LucLite lysis/substrate buffer was added to each well and the plates were sealed and mixed in the dark on a rotary shaker for 15-30 minutes at room temperature. Luciferase readings were then taken on the TopCount instrument. Measurements were expressed as relative light units (RLU) and are calculated and analyzed in MS Excel as follows: […]

CHO-K1 cells = assay: Toxicity in RRA (loss of luciferase signal); settings: toxicity = loss of signal (<0.75 fold increase)
Method: The beta amyloid inhibitory activity of the compounds of the present invention was determined using the Repressor Release Assay (RRA).
“Fold Increase” refers to the amount of luciferase activity (measured in relative light units) over diluent control. “SEM” refers to the standard error of the mean for fold increase.

[1] = Conc 20 μg/ml, luciferase activity over diluent control

Compound: 2-fluoro-N-[(1S)-1-(hydroxy 1-methylethyl]benzenesulfonamide [Example 117]
APPI Fold Increase (beta amyloid production; [1]): 1.5 fold
APPI % of Example #98 (beta amyloid production; Conc 20 μg/ml): 31%
(%)APPI Toxicity (CHO-K1 cells; Conc 20 μg/ml): 1 (1=non-toxic)

fold increase in luciferase activity (beta amyloid production; at 10 μg/mL, luciferase activity over diluent control, transfected CHO-K1 cells): 6.0-28.1 fold increase
Compound: C[C@H](NC(=O)Cc1cc(F)cc(F)c1)C(=O)N[C@H](C(=O)OC(C)(C)C)c1ccccc1 [DAPT, reference compound]

Compound: CC[C@H](C)[C@@H](CO)N(CCNC(=O)OC(C)(C)C)S(=O)(=O)c1ccc(Cl)cc1 [Example 42, tert-butyl 2-{([4-chlorophenyl)sulfonyl][(1S,2S)-1-(hydroxymethyl)-2-methylbutyl]amino} ethyl carbamate]
APPI Fold Increase (beta amyloid production; [1]): 1.9 fold
APPI % of Example #98 (beta amyloid production; Conc 20 μg/ml): 71.7%

Compound: CCCCCCC(O)[C@@H](NS(=O)(=O)c1ccc(F)cc1)[C@@H](C)CC (stereo partly drawn) [Example 128, 4-fluoro-N-{(1S)-2-hydroxy-1-[(1S)-1-methylpropyl]octyl}benzenesulfonamide]
(%)APPI Toxicity (CHO-K1 cells; Conc 10 μg/ml): 1 (1=non-toxic)

Compound: CCCCCC(O)[C@@H](NS(=O)(=O)c1ccc(F)cc1)[C@@H](C)CC (stereo partly drawn) [Example 129, 4-fluoro-N-{(1S)-2-hydroxy-1-[(1S)-1-methylpropyl]heptyl}benzenesulfonamide]
(%)APPI Toxicity (CHO-K1 cells; Conc 10 μg/ml): 1 (1=non-toxic)

Compound: CC[C@H](C)[C@H](NS(=O)(=O)c1ccc(Br)cc1)C(O)C(C)(C)C (stereo partly drawn) [Example 149, 4-bromo-N-{(1S)-2-hydroxy-3,3-dimethyl-1-[(1S)-1-methylpropyl]butyl}benzenesulfonamide]
(%)APPI Toxicity (CHO-K1 cells; Conc 10 μg/ml): 1 (1=non-toxic)

Compound: CC[C@H](C)[C@H](NS(=O)(=O)c1ccc(Br)cc1)C(O)CC(C)C (stereo partly drawn) [Example 150, 4-bromo-N-{(S)-2-hydroxy-4-methyl-1-[(1S)-1-methylpropyl]pentyl}benzenesulfonamide]
(%)APPI Toxicity (CHO-K1 cells; Conc 10 μg/ml): 1 (1=non-toxic)

Compound: CC[C@H](C)[C@H](NS(=O)(=O)c1ccc(Cl)cc1)C(O)C1CCCC1 (stereo partly drawn) [Example 166, 4-chloro-N-{(1S,2S)-1-[cyclopentyl(hydroxy)methyl]-2-methylbutyl}benzenesulfonamide]
(%)APPI Toxicity (CHO-K1 cells; Conc 10 μg/ml): 1 (1=non-toxic)

Compound: CCCCCC(O)[C@@H](NS(=O)(=O)c1ccc(Cl)cc1)[C@@H](C)CC (stereo partly drawn) [Example 168, 4-chloro-N-{(1S)-2-hydroxy-1-[(1S)-1-methylpropyl]heptyl}benzenesulfonamide]
(%)APPI Toxicity (CHO-K1 cells; Conc 10 μg/ml): 1 (1=non-toxic)

Compound: C=CCC(O)[C@@H](NS(=O)(=O)c1ccc(Cl)cc1)[C@@H](C)CC (stereo partly drawn) [Example 175, 4-chloro-N-{(1S)-2-hydroxy-1-[(1S)-1-methylpropyl]-4-pentenyl}benzenesulfonamide]
(%)APPI Toxicity (CHO-K1 cells; Conc 10 μg/ml): 1 (1=non-toxic)

Compound: CC[C@H](C)[C@H](NS(=O)(=O)c1ccccc1F)C(O)C1CCCC1 (stereo partly shown) [Example 202]
APPI Fold Increase (beta amyloid production; Conc 10 μg/ml, luciferase activity over diluent control): 1.62 fold
APPI % of Example #98 (beta amyloid production; Conc 10 μg/ml): 55.79%

Compound: CCCCCC(O)(CCCCC)[C@@H](NS(=O)(=O)c1ccc(Br)cc1)[C@@H](C)CC [Example 212, 4-bromo-N-{(1S)-2-hydroxy-1-[(1S)-1-methylpropyl]-2-pentylheptyl}benzenesulfonamide]
(%)APPI Toxicity (CHO-K1 cells; Conc 10 μg/ml): 1 (1=non-toxic)

Compound: CC[C@H](C)[C@H](NS(=O)(=O)c1ccc(Br)cc1)C(O)(CC(C)C)CC(C)C [Example 214, 4-bromo-N-{(1S)-2-hydroxy-2-isobutyl-4-methyl-1-[(1S)-1-methylpropyl]pentyl} benzenesulfonamide]
(%)APPI Toxicity (CHO-K1 cells; Conc 10 μg/ml): 1 (1=non-toxic)

Compound: CCCCCCC(O)(CCCCCC)[C@@H](NS(=O)(=O)c1ccc(F)cc1)[C@@H](C)CC [Example 236, 4-fluoro-N-{(1S)-2-hexyl-2-hydroxy-1-[(1S)-1-methylpropyl]octyl}benzenesulfonamide]
(%)APPI Toxicity (CHO-K1 cells; Conc 10 μg/ml): 1 (1=non-toxic)

Compound: CC[C@H](C)[C@H](NS(=O)(=O)c1ccc(F)cc1)C(O)(c1cccc2ccccc12)c1cccc2ccccc12 [Example 248, 4-fluoro-N-((1S,2S)-1-{hydroxy[di(1-naphthyl)]methyl}-2-methylbutyl)benzenesulfonamide]
(%)APPI Toxicity (CHO-K1 cells; Conc 10 μg/ml): 1 (1=non-toxic)
